Columns and labels:
hemorrhagic shock = format: in vivo, rats
Experimental: Two studies of resuscitation by albumin after hemorrhage were performed. In the first study, resuscitation by a crystalloid (control) was compared to resuscitation with either a bolus of bovine serum albumin (BSA) saturated with oleic acid (OA-BSA) or a bolus of NEFA-free albumin, followed by crystalloid, as needed. As commercially available pharmaceutical grade albumin is human albumin (HSA) that is nearly saturated with caprylic acid, instead of oleic acid, in the second study OA-BSA, caprylic acid-saturated BSA (CA-BSA), and pharmaceutical grade human serum albumin (HSA) were compared. A crystalloid-only group (“Crystalloid Only Group”) was also run as a control. […] There were no significant differences among the Albumin Groups (all containing high concentrations of NEFA) in any of the other measurements.
Laparotomy was performed to induce trauma, then the opening was covered with plastic wrap. The right hind leg was elevated and an inflatable tourniquet (digit cuff, Hokanson, Bellevue, WA) was positioned on the leg, but not yet inflated. For the second albumin study, isoflurane was lowered to 1% immediately before start of hemorrhage. Rats were hemorrhaged (2 ml/min/kg BW) by syringe pump until MAP dropped to 35 mmHg (designated as time T=0 h). At that time, the tourniquet was inflated using a Portable Tourniquet System (Delfi Medical, Vancouver, Canada), representing first aid. The controlled hemorrhage rate was then reduced to 0.6 ml/min/kg to simulate hemorrhage not controlled by tourniquet (e.g., from another injury site or imperfect application). Blood pressure was maintained at 33-38 mmHg by adjusting the draw rate (0.2-0.8 ml/min/kg), until the total hemorrhage reached 27 ml/kg. […] The bolus size was chosen as the estimated dosage needed to replace the albumin lost to hemorrhage. […] At T=2 h, representing the maximum recommended time before conversion to hemostatic dressing 16, the tourniquet was deflated and removed. Surviving animals were euthanized at T=4 h by intravenous administration of 0.2 ml of sodium pentobarbital euthanasia solution (Beuthanasia, Merck Animal Health, Madison, NJ), while still under anesthesia. After euthanasia, the right lung was harvested for moisture analysis (MA160, Sartorious, Bohemia, NY) and the left lung for collection of BALF (3X bronchoalveolar lavage fluid with 3 ml saline). Following the final lavage, the left lung was infused with formalin fixative for histological analysis. The liver, heart, spleen, kidney, and jejunum were also collected and fixed in formalin for histological analysis.

[1] = system: Trauma and 27 ml/kg hemorrhagic shock; assay: Second albumin study: trauma and 27 ml/kg hemorrhagic shock model, albumin bolus then crystalloid as needed; format: in vivo
Experimental: Rats were acclimated for at least 5 days after arrival at the facility prior to experimental procedures. Trauma and 27 ml/kg hemorrhagic shock models in the art were used with some modifications: 1) an extended observation period considered entirely pre-hospital to represent prolonged field care and 2) a reduction in isoflurane during hemorrhage, intended to reduce the mortality prior to resuscitation (FIG. 28). Rats were assigned into 4 treatment groups: Crystalloid (N=15), OA-saturated BSA (OA-BSA; N=17), CA-saturated BSA (CA-BSA; N=17), and pharmaceutical HSA (N=17). Adult, male Sprague Dawley rats (Charles River Laboratories, Houston, TX) between 325 and 400 g in body weight (BW) were induced with isoflurane (4%) in medical air, then maintained at 2-3% throughout instrumentation. Core temperature was maintained (36-37° C.) using a heating pad and monitored with a rectal probe (Physitemp, Clifton, NJ). The carotid artery was cannulated for continuous pressure recording, the left femoral artery for controlled hemorrhage, and the left femoral vein for blood sampling and resuscitation fluid administration. PE50 tubing for vessel cannulations was soaked overnight in heparin to reduce clotting.
Laparotomy was performed to induce trauma, then the opening was covered with plastic wrap. […]

Row | Substance | amount of resuscitation fluid required to keep pressure at a sufficient level (hemorrhagic shock; first study) | significantly reduced mortality compared to the Crystalloid Only Group (hemorrhagic shock; first study) | mortality (hemorrhagic shock; first study, FIG. 4) | loss of protein from the circulation (plasma/total protein T2 to T4) ([1]; rat, in vivo) | effect on pressure relative to OA-BSA and Crystalloid Only Group (hemorrhagic shock; first study) | vascular leakage (hemorrhagic shock; rat, in vivo) | loss of protein from the circulation (plasma/total protein T2 to T4) ([1]; second study, FIG. 2 and FIG. 3)
1 | OA-BSA: bovine serum albumin (BSA) saturated with oleic acid, 25% bolus | 6 mL/kg | significantly reduced mortality | 8% | significant drop | – | – | –
2 | NEFA-free albumin: albumin preparation with a NEFA content of 0-0.14% by weight of albumin; bovine serum albumin in the experiments | 46 mL/kg | – | – | – | intermediate between the other two groups | did not cause vascular leakage | –
3 | CA-BSA: caprylic acid-saturated BSA | – | – | – | – | – | – | significant drop

Reference: US20250367268A1, “Compositions and Methods for Treating Internal Bleeding and Hemorrhage” (priority 2024, published 2025)
